In ChEMBL document CHEMBL1155866, “Effects of N-pyrrole substitution on the anti-biofilm activities of oroidin derivatives against Acinetobacter baumannii” (Bioorg Med Chem Lett, 2008):

Legend:
Acinetobacter baumannii [1] = assay: Inhibition of […] biofilm formation at 500 uM after 24 hrs by crystal violet reporter assay; format: functional
Acinetobacter baumannii [2] = assay: Inhibition of […] biofilm formation after 24 hrs by crystal violet reporter assay; format: functional, organism-based
Acinetobacter baumannii [3] = assay: Inhibition of […] biofilm dispersion after 24 hrs by crystal violet reporter assay; format: functional, organism-based

SMILES | inhibition at 500 µM (Acinetobacter baumannii [1]) | IC50 (Acinetobacter baumannii [2]) | EC50 (Acinetobacter baumannii [3])
CCn1c(C(=O)NCCCc2c[nH]c(N)n2)cc(Br)c1Br | 10.3% | – | –
Nc1nc(CCCNC(=O)c2cc(Br)c(Br)n2C2CCCC2)c[nH]1 | – | 40.5 µM | –
Nc1nc(CCCNC(=O)c2cc(Br)c(Br)n2-c2ccc(Br)cc2)c[nH]1 | – | 26.8 µM | 41.3 µM
Nc1nc(CCCNC(=O)c2cc(Br)c(Br)n2Cc2ccccc2)c[nH]1 | – | 35.4 µM | –
Nc1nc(CCCNC(=O)c2cc(Br)c(Br)n2CCc2ccccc2)c[nH]1 | – | 40.7 µM | –
Cn1c(C(=O)NCCCc2c[nH]c(N)n2)nc(Br)c1Br | 50.7% | – | –
COc1ccc(Cn2c(C(=O)NCCCc3c[nH]c(N)n3)cc(Br)c2Br)cc1 | – | 42.8 µM | –
Nc1nc(CCCNC(=O)c2cc(Br)c(Br)n2-c2ccccc2)c[nH]1 | – | 97.7 µM | –
Cn1c(C(=O)NCCCc2c[nH]c(N)n2)cc(Br)c1Br [DIHYDROSVENTRIN] | > 99% | 110 µM | –
